The assay deals with C. tyrobutyricum adapted culture from the FBB. The class given is cell-based, Clostridium tyrobutyricum. As to conditions: butyrate concentration increased from nil to 30 g/L.

As for `CCCC(=O)O` [butyric acid], the growth ability retained result is “more than 50%”.

The values are drawn from patent US20110151529A1, “METHODS AND PROCESSES FOR PRODUCING ORGANIC ACIDS” (THE OHIO STATE UNIVERSITY, priority 2008, published 2011).
